# Reference: US5637586A, “Benzimidazolesulfonamide derivatives and pharmaceutical composition” (Kureha Chemical Industry Co., Ltd., priority 1994, dated 1997)
# How the values were obtained:
# [1] = system: angiotensin II receptor subtype 1 (AT1); assay: Binding to receptors: inhibition of radioligand (3H-angiotensin II) binding to AT1; conditions: rabbit adrenal glands, tracer 3H-angiotensin II, displacer DuP753, room temperature
# Protocol: (§1) In this Example, the affinity to the angiotensin II receptor subtype 1 or subtype 2 was evaluated by a binding assay in accordance with the method described in Biochem. Pharmacol., 33, 4057-4062 (1984).
# (§2) Specifically, the measurement of the total binding in the presence of each drug was performed as follows:
# (§3) A mixture (final volume=0.25 ml) of a drug in a given concentration (the drug was dissolved in dimethylsulfoxide, and diluted to a double volume with a buffer attached to a drug discovery system to prepare a sample for the assay; 0.025 ml), a tracer (0.025 ml), and receptors (0.2 ml) was incubated [in the case of the angiotensin II receptor subtype 1 (AT1), at room temperature for 3 hours, and in the case of the subtype 2 (AT2), at 37° C. for 1 hour]. Then, the reaction mixture was filtered with suction (GF/C filter was used in AT1, and GF/B filter was used in AT2). The filter papers after filtration with suction (the tracer bound to the receptors) were counted by a γ-wellcounter (ARC-500, Aloka). The non-specific bindings were measured by repeating the above method, except that a large excess amount of a displacer was added. The specific binding of the drug in the given concentration was calculated by subtracting the non-specific binding from the total binding, respectively. […]
# [2] = system: angiotensin II receptor subtype 2 (AT2); assay: Binding to receptors: inhibition of radioligand (125I-Tyr4-angiotensin II) binding to AT2; conditions: bovine cerebellar cortex, tracer 125I-Tyr4-angiotensin II, displacer angiotensin II (human), 37° C., 1 hour
# Protocol: as §1, §2, §3
SMILES,"Binding inhibition % in 1 μM, AT1 [1]","Binding inhibition % in 1 μM, AT2 [2]"
"CCCCc1nc2ccc(S(=O)(=O)N3CCOCC3)cc2n1Cc1ccc(-c2ccccc2-c2nn[nH]n2)cc1 [Compound No. 1, 4-[[2-n-butyl-1-[2'-[(1H-tetrazol-5-yl)biphenyl-4-yl]methyl]benzimidazol-6-yl]sulfonyl]morpholin]",100%,0%
"CCCCc1nc(Cl)c(CO)n1Cc1ccc(-c2ccccc2-c2nnn[nH]2)cc1 [DuP753, 2-butyl-4-chloro-5-(hydroxymethyl)-1-[[2'-(1H-tetrazol-5-yl)biphenyl-4-yl]methyl]imidazole]",95%,0%
